Results as given in patent publication US20070281992A1, “COMBINATION OF GYRASE B INHIBITORS AND PROTEIN SYNTHESIS INHIBITORS AND USES THEREOF” (priority 2006, published 2007).
Like-named read-outs stand apart in the source and are kept apart here.

Key:
Assay type in all cases: cell-based
[1] = tested on: Methicillin-Susceptible Staphylococcus aureus Isolates; experiment: MIC assay (NCCLS broth dilution), MSSA clinical isolates; conditions: for MIC: Staphylococcus aureus
Summary of the method: (§1)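 Broth microdilution MICs determined per NCCLS M7-A6 in Mueller Hinton II broth over 11 two-fold dilutions. Novobiocin/tetracycline and novobiocin/minocycline combinations tested at a 2.5:1 ratio. Vancomycin served as control agent; S. aureus ATCC 29213 and E. faecalis ATCC 29212 were QC strains.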

[2] = tested on: Linezolid-Resistant Staphylococcus aureus Isolates; experiment: MIC assay (NCCLS broth dilution), LRSA isolates; conditions: for MIC: Staphylococcus aureus
Summary of the method: as §1

[3] = tested on: Unconfirmed Vancomycin-intermediate Staphylococcus epidermidis Isolates; experiment: MIC assay (NCCLS broth dilution), unconfirmed VISE isolates; conditions: for MIC: Staphylococcus epidermidis
Summary of the method: as §1

[4] = tested on: Vancomycin-intermediate Staphylococcus epidermidis Isolates; experiment: MIC assay (NCCLS broth dilution), VISE isolates
Summary of the method: as §1

[5] = tested on: Vancomycin-intermediate Staphylococcus aureus Isolates; experiment: MIC assay (NCCLS broth dilution), VISA isolates
Summary of the method: as §1

[6] = tested on: Unconfirmed Vancomycin-intermediate Staphylococcus aureus Isolates; experiment: MIC assay (NCCLS broth dilution), unconfirmed VISA isolates
Summary of the method: as §1

[7] = Staphylococcus aureus, read-out: Minimal Inhibitory Concentration

Compound: CN[C@H](CC(C)C)C(=O)N[C@H]1C(=O)N[C@@H](CC(N)=O)C(=O)N[C@H]2C(=O)N[C@H]3C(=O)N[C@H](C(=O)N[C@H](C(=O)O)c4cc(O)cc(O)c4-c4cc3ccc4O)[C@H](O)c3ccc(c(Cl)c3)Oc3cc2cc(c3O[C@@H]2O[C@H](CO)[C@@H](O)[C@H](O)[C@H]2O[C@H]2C[C@](C)(N)[C@H](O)[C@H](C)O2)Oc2ccc(cc2Cl)[C@H]1O [VA, vancomycin]
- MIC Range ([1]; 52 MSSA isolates, Mueller Hinton II Broth, combinations at 2.5:1, given as NB/partner): .5 to 1 µg/mL
- MIC ([1]; read-out: Minimal Inhibitory Concentration, MSSA isolate 133, 03MAR06): 0.5 µg/mL
- MIC ([1]; read-out: Minimal Inhibitory Concentration, MSSA isolate 134, 03MAR06): 0.5 µg/mL
- MIC ([1]; read-out: Minimal Inhibitory Concentration, MSSA isolate 135, 03MAR06): 1 µg/mL
- MIC ([1]; read-out: Minimal Inhibitory Concentration, MSSA isolate 753, 22FEB06): 0.5 µg/mL
- MIC ([1]; read-out: Minimal Inhibitory Concentration, MSSA isolate 754, 22FEB06): 0.5 µg/mL
- MIC ([1]; read-out: Minimal Inhibitory Concentration, MSSA isolate 754, 24FEB06): 0.5 µg/mL
- MIC ([1]; read-out: Minimal Inhibitory Concentration, MSSA isolate 755, 22FEB06): 1 µg/mL
- MIC ([1]; read-out: Minimal Inhibitory Concentration, MSSA isolate 756, 03MAR06): 0.5 µg/mL
- MIC ([1]; read-out: Minimal Inhibitory Concentration, MSSA isolate 779, 22FEB06): 0.5 µg/mL
- MIC ([1]; read-out: Minimal Inhibitory Concentration, MSSA isolate 780, 03MAR06): 1 µg/mL
- MIC ([1]; read-out: Minimal Inhibitory Concentration, MSSA isolate 781, 03MAR06): 0.5 µg/mL
- MIC ([1]; read-out: Minimal Inhibitory Concentration, MSSA isolate 782, 22FEB06): 1 µg/mL
- MIC ([1]; read-out: Minimal Inhibitory Concentration, MSSA isolate 783, 22FEB06): 1 µg/mL
- MIC ([1]; read-out: Minimal Inhibitory Concentration, MSSA isolate 784, 22FEB06): 0.5 µg/mL
- MIC ([1]; read-out: Minimal Inhibitory Concentration, MSSA isolate 785, 22FEB06): 0.5 µg/mL
- MIC ([1]; read-out: Minimal Inhibitory Concentration, MSSA isolate 786, 22FEB06): 0.5 µg/mL
- MIC ([1]; read-out: Minimal Inhibitory Concentration, MSSA isolate 787, 22FEB06): 0.5 µg/mL
- MIC ([1]; read-out: Minimal Inhibitory Concentration, MSSA isolate 788, 22FEB06): 0.5 µg/mL
- MIC ([1]; read-out: Minimal Inhibitory Concentration, MSSA isolate 789, 24FEB06): 1 µg/mL
- MIC ([1]; read-out: Minimal Inhibitory Concentration, MSSA isolate 790, 24FEB06): 0.5 µg/mL
- MIC ([1]; read-out: Minimal Inhibitory Concentration, MSSA isolate 791, 24FEB06): 0.5 µg/mL
- MIC ([1]; read-out: Minimal Inhibitory Concentration, MSSA isolate 792, 03MAR06): 0.5 µg/mL
- MIC ([1]; read-out: Minimal Inhibitory Concentration, MSSA isolate 793, 24FEB06): 0.5 µg/mL
- MIC ([1]; read-out: Minimal Inhibitory Concentration, MSSA isolate 794, 24FEB06): 1 µg/mL
- MIC ([1]; read-out: Minimal Inhibitory Concentration, MSSA isolate 994, 22FEB06): 1 µg/mL
- MIC ([1]; read-out: Minimal Inhibitory Concentration, MSSA isolate 995, 03MAR06): 1 µg/mL
- MIC ([1]; read-out: Minimal Inhibitory Concentration, MSSA isolate 996, 22FEB06): 0.5 µg/mL
- MIC ([1]; read-out: Minimal Inhibitory Concentration, MSSA isolate 997, 22FEB06): 1 µg/mL
- MIC ([1]; read-out: Minimal Inhibitory Concentration, MSSA isolate 998, 03MAR06): 1 µg/mL
- MIC ([1]; read-out: Minimal Inhibitory Concentration, MSSA isolate 999, 22FEB06): 0.5 µg/mL
- MIC ([1]; read-out: Minimal Inhibitory Concentration, MSSA isolate 1000, 24FEB06): 1 µg/mL
- MIC ([1]; read-out: Minimal Inhibitory Concentration, MSSA isolate 1001, 24FEB06): 1 µg/mL
- MIC ([1]; read-out: Minimal Inhibitory Concentration, MSSA isolate 1002, 24FEB06): 0.5 µg/mL
- MIC ([1]; read-out: Minimal Inhibitory Concentration, MSSA isolate 1003, 03MAR06): 0.5 µg/mL
- MIC ([1]; read-out: Minimal Inhibitory Concentration, MSSA isolate 1005, 24FEB06): 1 µg/mL
- MIC ([1]; read-out: Minimal Inhibitory Concentration, MSSA isolate 1006, 24FEB06): 1 µg/mL
- MIC ([1]; read-out: Minimal Inhibitory Concentration, MSSA isolate 1007, 24FEB06): 1 µg/mL
- MIC ([1]; read-out: Minimal Inhibitory Concentration, MSSA isolate 1008, 24FEB06): 0.5 µg/mL
- MIC ([1]; read-out: Minimal Inhibitory Concentration, MSSA isolate 1009, 24FEB06): 0.5 µg/mL
- MIC ([1]; read-out: Minimal Inhibitory Concentration, MSSA isolate 1131, 24FEB06): 1 µg/mL
- MIC ([1]; read-out: Minimal Inhibitory Concentration, MSSA isolate 1132, 03MAR06): 0.5 µg/mL
- MIC ([1]; read-out: Minimal Inhibitory Concentration, MSSA isolate 1133, 24FEB06): 0.5 µg/mL
- MIC ([1]; read-out: Minimal Inhibitory Concentration, MSSA isolate 1134, 24FEB06): 0.5 µg/mL
- MIC ([1]; read-out: Minimal Inhibitory Concentration, MSSA isolate 1654, 03MAR06): 0.5 µg/mL
- MIC ([1]; read-out: Minimal Inhibitory Concentration, MSSA isolate 1656, 03MAR06): 0.5 µg/mL
- MIC ([1]; read-out: Minimal Inhibitory Concentration, MSSA isolate 1662, 03MAR06): 0.5 µg/mL
- MIC ([1]; read-out: Minimal Inhibitory Concentration, MSSA isolate 1663, 03MAR06): 1 µg/mL
- MIC ([1]; read-out: Minimal Inhibitory Concentration, MSSA isolate 1666, 03MAR06): 0.5 µg/mL
- MIC ([1]; read-out: Minimal Inhibitory Concentration, MSSA isolate 1667, 03MAR06): 1 µg/mL
- MIC ([1]; read-out: Minimal Inhibitory Concentration, MSSA isolate 1668, 03MAR06): 0.5 µg/mL
- MIC ([1]; read-out: Minimal Inhibitory Concentration, MSSA isolate 1671, 03MAR06): 1 µg/mL
- MIC ([1]; read-out: Minimal Inhibitory Concentration, MSSA isolate 1728, 03MAR06): 1 µg/mL
- MIC ([1]; read-out: Minimal Inhibitory Concentration, MSSA isolate 1728, retest 09MAR06): 1 µg/mL
- MIC Range ([2]; 3 LRSA isolates, combinations at 2.5:1): 0.5 to 1 µg/mL
- MIC ([2]; read-out: Minimal Inhibitory Concentration, LRSA isolate 1651, 24FEB06): 0.5 µg/mL
- MIC ([2]; read-out: Minimal Inhibitory Concentration, LRSA isolate 1652, 24FEB06): 1 µg/mL
- MIC ([2]; read-out: Minimal Inhibitory Concentration, LRSA isolate 1725, 24FEB06): 1 µg/mL
- MIC Range ([3]; 3 unconfirmed VISE isolates, combinations at 2.5:1): 1 to 4 µg/mL
- MIC ([3]; read-out: Minimal Inhibitory Concentration, Unconfirmed VISE isolate 2024, 09MAR06): 2 µg/mL
- MIC ([3]; read-out: Minimal Inhibitory Concentration, Unconfirmed VISE isolate 2025, 09MAR06): 4 µg/mL
- MIC ([3]; read-out: Minimal Inhibitory Concentration, Unconfirmed VISE isolate 2026, 03MAR06): 4 µg/mL
- MIC Range ([4]; 4 VISE isolates, combinations at 2.5:1): 8 µg/mL
- MIC ([4]; Staphylococcus epidermidis, read-out: Minimal Inhibitory Concentration): 8 µg/mL
- Minimal Inhibitory Concentration ([4]; VISE isolate 2020, 09MAR06): 8 µg/mL
- Minimal Inhibitory Concentration ([4]; VISE isolate 2021, 09MAR06): 8 µg/mL
- Minimal Inhibitory Concentration ([4]; VISE isolate 2023, 03MAR06): 8 µg/mL
- MIC Range ([5]; 2 VISA isolates, combinations at 2.5:1, given as NB/partner): 8 µg/mL
- MIC [5, 7]: 8 µg/mL
- Minimal Inhibitory Concentration ([5]; VISA isolate 2018, 03MAR06): 8 µg/mL
- MIC Range ([6]; 6 unconfirmed VISA isolates (vancomycin MIC 4 ug/ml), combinations at 2.5:1): 4 µg/mL
- MIC [6, 7]: 4 µg/mL
- Minimal Inhibitory Concentration ([6]; Unconfirmed VISA isolate 2014, 03MAR06): 4 µg/mL
- Minimal Inhibitory Concentration ([6]; Unconfirmed VISA isolate 2015, 03MAR06): 4 µg/mL
- Minimal Inhibitory Concentration ([6]; Unconfirmed VISA isolate 2016, 03MAR06): 4 µg/mL
- Minimal Inhibitory Concentration ([6]; Unconfirmed VISA isolate 2017, 03MAR06): 4 µg/mL
- Minimal Inhibitory Concentration ([6]; Unconfirmed VISA isolate 2019, 03MAR06): 4 µg/mL
